US6147100A, “Pyrrolidine derivatives having phospholipase A2 inhibitory activity” (Shionogi & Co., Ltd., priority 1997, dated 2000)
pIC50: −log10 of the molar value.

Key:
cPLA2 = molecular target: T1, cPLA2 (Homo sapiens, UniProt P47712); test: cPLA2 Inhibitory Activity; format: biochemical; conditions: 1-palmitoyl-2-[14C]-arachidonoyl-sn-glycero-3-phosphocholine 2.5 μM, sn-1,2-dioleoylglycerol 1.25 μM; pH 7.5, 15 min at 37° C.
T1 sequence (P47712 1-749): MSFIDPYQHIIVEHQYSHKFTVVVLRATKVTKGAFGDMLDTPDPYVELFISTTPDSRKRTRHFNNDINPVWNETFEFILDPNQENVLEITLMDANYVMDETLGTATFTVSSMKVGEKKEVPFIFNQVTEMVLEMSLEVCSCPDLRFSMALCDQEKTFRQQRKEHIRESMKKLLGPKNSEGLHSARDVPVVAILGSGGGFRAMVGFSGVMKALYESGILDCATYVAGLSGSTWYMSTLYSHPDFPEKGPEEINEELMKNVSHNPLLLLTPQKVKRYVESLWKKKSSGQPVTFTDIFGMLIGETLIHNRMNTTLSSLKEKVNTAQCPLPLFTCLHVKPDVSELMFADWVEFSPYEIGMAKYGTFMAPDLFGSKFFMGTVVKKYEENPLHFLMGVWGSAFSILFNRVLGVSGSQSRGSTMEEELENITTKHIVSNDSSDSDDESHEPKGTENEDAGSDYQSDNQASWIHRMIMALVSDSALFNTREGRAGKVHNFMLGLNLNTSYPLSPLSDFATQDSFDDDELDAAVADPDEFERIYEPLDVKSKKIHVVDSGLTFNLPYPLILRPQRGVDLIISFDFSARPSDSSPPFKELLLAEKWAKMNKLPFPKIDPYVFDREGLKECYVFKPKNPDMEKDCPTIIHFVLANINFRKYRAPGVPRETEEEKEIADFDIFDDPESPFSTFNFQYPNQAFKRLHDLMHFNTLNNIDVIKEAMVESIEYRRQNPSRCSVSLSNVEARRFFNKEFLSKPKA
Protocol: Test Example 1 cPLA2 Inhibitory Activity The compounds of the present invention were tested for the cPLA2 inhibitory activity according to the method disclosed in […]. Roberts, […], and J. E. Putnam, J. Biol. Chem., 1991, 266, 5268-5272 as outlined below. […] The reaction mixture includes 50 mM HEPES buffer (pH 7.5), 1 mM calcium chloride, 150 mM sodium chloride, 0.1 mg/ml bovine serum albumin, and 1.7 mM dithiothreitol. To the reaction mixture was added the compound of the present invention and the substrate solution. The reaction was allowed to start by adding an enzyme and continued for 15 min at 37° C. The fatty acids released by the reaction were extracted by the method described in V. P. Dole, and H. Meinertz, J. Biol. Chem., 1960, 235, 2595-2599 and its radiation activity was measured on a liquid scintillation counter. Control was obtained by conducting the experiment in the same manner except that a compound of the present invention was not added.

[1] = tested on: production of prostaglandin E2 by human fibroblasts; test: Inhibition of Production of Prostaglandin E2 in Human Fibroblasts (IL-1 stimulation); format: cell-based; conditions: Fibroblast; human fibroblasts under stimulation with IL-1
Protocol: Test Example 2 Inhibition of Production of Prostaglandin E2 in Human Fibroblasts.
In order to examine the availability of the composition for inhibiting cytosolic phospholipase A2 (cPLA2) on the cells, the compounds of the present invention were tested for the effect on the production of prostaglandin E2 by human fibroblasts under the stimulation with IL-1 according to the method of J. M. Dayer et al (CACHECTIN/TUMOR NECROSIS FACTOR STIMULATES COLLAGENASE AND PROSTAGLANDIN E2 PRODUCTION BY HUMAN SYNOVIAL CELLS AND DERMAL FIBROBLASTS; J. M. Dayer, B, Beutler and A, Cerami, J. EXP. Med., 1985, 162, 2163-2168.).

| SMILES | pIC50 (cPLA2) | pIC50 [1] |
| --- | --- | --- |
| O=C1NC(=O)/C(=C/c2ccc(C(=O)NC[C@@H]3C[C@@H](OCc4ccccc4-c4ccccc4)CN3C(=O)c3ccccc3C(=O)c3ccccc3)cc2)S1 [Compound A-1] | 6.77 | 6.77 |
| O=C1NC(=O)/C(=C/c2ccc(C(=O)NC[C@@H]3C[C@@H](OCc4ccccc4)CN3C(=O)c3ccccc3C(=O)c3ccccc3)cc2)S1 [Compound A-2] | 5.92 | 6.14 |
| O=C1NC(=O)/C(=C/c2ccc(C(=O)NC[C@@H]3C[C@@H](OCc4ccc(F)cc4F)CN3C(=O)c3ccccc3C(=O)c3ccccc3)cc2)S1 [Compound A-3] | 5.85 | 6.05 |
| O=C1NC(=O)/C(=C/c2ccc(C(=O)NC[C@@H]3C[C@@H](OCc4ccc(-c5ccccc5)cc4)CN3C(=O)c3ccccc3C(=O)c3ccccc3)cc2)S1 [Compound A-4] | 6.52 | 6.68 |
| Cc1ccccc1CO[C@@H]1C[C@@H](CNC(=O)c2ccc(/C=C3\SC(=O)NC3=O)cc2)N(C(=O)c2ccccc2C(=O)c2ccc(F)cc2)C1 [Compound A-5] | 6.24 | 6.59 |
| O=C1NC(=O)/C(=C/c2ccc(C(=O)NC[C@@H]3C[C@@H](OCc4ccccc4-c4ccccc4)CN3C(=O)CCC(=O)c3ccc(F)cc3)cc2)S1 [Compound A-6] | 5.32 | 5.05 |
| O=C1NC(=O)/C(=C/c2ccc(C(=O)NC[C@@H]3C[C@@H](OCc4ccccc4-c4ccccc4)CN3C(=O)C3CCCCC3C(=O)c3ccccc3)cc2)S1 (stereo partly shown) [Compound A-10] | 5.49 | 6.33 |
| O=C1NC(=O)/C(=C/c2ccc(C(=O)NC[C@@H]3C[C@@H](OCc4ccccc4-c4ccccc4)CN3C(=O)c3ncccc3C(=O)c3ccccc3)cc2)S1 [Compound A-11] | 6.07 | 6.64 |
| O=C1NC(=O)/C(=C/c2ccc(C(=O)NC[C@@H]3C[C@@H](OCc4ccccc4-c4ccccc4)CN3C(=O)c3sccc3C(=O)c3ccccc3)cc2)S1 [Compound A-12] | 5.51 | 7.00 |
| O=C1NC(=O)/C(=C/c2ccc(C(=O)NC[C@@H]3C[C@@H](OCc4ccccc4-c4ccccc4)CN3C(=O)c3ccccc3C(=O)C3CCCCC3)cc2)S1 [Compound A-14] | 6.43 | 6.48 |
| O=C1NC(=O)/C(=C/c2ccc(C(=O)NC[C@@H]3C[C@@H](OCc4ccccc4-c4ccccc4)CN3C(=O)c3ccccc3C(=O)c3ccc(F)cc3)cc2)S1 [Compound A-16] | 7.10 | 6.59 |
| O=C1NC(=O)/C(=C/c2ccc(C(=O)NC[C@@H]3C[C@@H](OCc4ccccc4-c4ccccc4)CN3C(=O)c3ccccc3C(=O)c3ccoc3)cc2)S1 [Compound A-17] | 5.80 | 6.15 |
| O=C1NC(=O)/C(=C/c2ccc(C(=O)NC[C@@H]3C[C@@H](OCc4ccccc4-c4ccccc4)CN3C(=O)c3ccccc3C(=O)c3ccsc3)cc2)S1 [Compound A-18] | 5.92 | 6.42 |
| O=C1NC(=O)/C(=C/c2ccc(C(=O)NC[C@@H]3C[C@@H](OCc4ccccc4-c4ccccc4)CN3C(=O)c3ccccc3C(=O)c3cccs3)cc2)S1 [Compound A-19] | 6.00 | 6.80 |
| O=C1NC(=S)S/C1=C\c1ccc(C(=O)NC[C@@H]2C[C@@H](OCc3ccccc3-c3ccccc3)CN2C(=O)c2ccccc2C(=O)c2ccc(F)cc2)cc1 [Compound A-20] | 6.52 | 6.46 |
| Cc1ccc(C(=O)c2ccccc2C(=O)N2C[C@H](OCc3ccccc3-c3ccccc3)C[C@H]2CNC(=O)c2ccc(/C=C3\SC(=O)NC3=O)cc2)cc1 [Compound A-21] | 6.37 | 6.64 |
| O=C1NC(=O)/C(=C/c2ccc(C(=O)NC[C@@H]3C[C@@H](OCc4ccccc4-c4ccccc4)CN3C(=O)c3ccccc3C(=O)c3ccc(Cl)cc3)cc2)S1 [Compound A-22] | 6.52 | 6.74 |

| SMILES | pIC50 (cPLA2) | pIC50 [1] |
| --- | --- | --- |
| Nc1ccccc1C(=O)c1ccccc1C(=O)N1C[C@H](OCc2ccccc2-c2ccccc2)C[C@H]1CNC(=O)c1ccc(/C=C2\SC(=O)NC2=O)cc1 [Compound A-23] | 6.34 | 5.92 |
| O=C1NC(=O)/C(=C/c2ccc(C(=O)NC[C@@H]3C[C@@H](OCc4ccccc4-c4ccccc4)CN3C(=O)c3ccccc3C(=O)c3ccc(F)cc3F)cc2)S1 [Compound A-25] | 7.32 | 6.10 |
| O=C1NC(=O)/C(=C/c2ccc(C(=O)NC[C@@H]3C[C@@H](OCc4ccccc4-c4ccccc4)CN3C(=O)c3cccc4c3C(=O)c3ccccc3-4)cc2)S1 [Compound A-26] | 6.00 | 6.77 |
| Cc1ccc(C(=O)c2ccccc2C(=O)N2C[C@H](OCc3ccccc3-c3ccccc3)C[C@H]2CNC(=O)c2ccc(/C=C3\SC(=S)NC3=O)cc2)cc1 [Compound A-27] | 6.37 | 5.92 |
| O=C1NC(=S)S/C1=C\c1ccc(C(=O)NC[C@@H]2C[C@@H](OCc3ccccc3-c3ccccc3)CN2C(=O)c2ccccc2C(=O)c2ccc(Cl)cc2)cc1 [Compound A-28] | 6.55 | 5.85 |
| O=C1NC(=O)/C(=C/c2ccc(C(=O)NC[C@@H]3C[C@@H](OC(c4ccccc4)c4ccccc4)CN3C(=O)c3ccccc3C(=O)c3ccc(F)cc3)cc2)S1 [Compound A-29] | 7.07 | 5.66 |
| O=C1NC(=O)/C(=C/c2ccc(C(=O)NC[C@@H]3C[C@@H](OCc4ccccc4-c4ccc(F)cc4)CN3C(=O)c3ccccc3C(=O)c3ccc(F)cc3)cc2)S1 [Compound A-30] | 7.01 | 6.34 |
| O=C1NC(=O)/C(=C/c2ccc(C(=O)NC[C@@H]3C[C@@H](OCc4ccccc4Cc4ccccc4)CN3C(=O)c3ccccc3C(=O)c3ccc(F)cc3)cc2)S1 [Compound A-32] | 7.17 | 6.24 |
| O=C1NC(=O)/C(=C/c2ccc(C(=O)NC[C@@H]3C[C@@H](OCc4ccccc4Br)CN3C(=O)c3ccccc3C(=O)c3ccc(F)cc3)cc2)S1 [Compound A-33] | 7.23 | 6.34 |
| O=C1NC(=O)/C(=C/c2ccc(C(=O)NC[C@@H]3C[C@@H](OCc4ccccc4I)CN3C(=O)c3ccccc3C(=O)c3ccc(F)cc3)cc2)S1 [Compound A-34] | 7.15 | 6.32 |
| O=C1NC(=O)/C(=C/c2ccc(C(=O)NC[C@@H]3C[C@@H](OCc4ccccc4-c4cccc5ccccc45)CN3C(=O)c3ccccc3C(=O)c3ccc(F)cc3)cc2)S1 [Compound A-35] | 7.40 | 6.74 |
| O=C1NC(=O)/C(=C/c2ccc(C(=O)NC[C@@H]3C[C@@H](OCc4ccccc4-c4ccc5ccccc5c4)CN3C(=O)c3ccccc3C(=O)c3ccc(F)cc3)cc2)S1 [Compound A-36] | 7.32 | 6.74 |
| O=C1NC(=O)/C(=C/c2ccc(C(=O)NC[C@@H]3C[C@@H](OCc4ccccc4-c4cccs4)CN3C(=O)c3ccccc3C(=O)c3ccc(F)cc3)cc2)S1 [Compound A-37] | 7.14 | 6.55 |
| O=C1NC(=O)/C(=C/c2ccc(C(=O)NC[C@@H]3C[C@@H](OCc4ccccc4-c4ccsc4)CN3C(=O)c3ccccc3C(=O)c3ccc(F)cc3)cc2)S1 [Compound A-38] | 7.08 | 6.37 |
| O=C1NC(=O)/C(=C/c2ccc(C(=O)NC[C@@H]3C[C@@H](OCc4ccc5ccccc5c4-c4ccccc4)CN3C(=O)c3ccccc3C(=O)c3ccc(F)cc3)cc2)S1 [Compound A-39] | 7.60 | 6.48 |
| O=C1NC(=O)/C(=C/c2ccc(C(=O)NC[C@@H]3C[C@@H](OCc4ccccc4-c4cc5ccccc5o4)CN3C(=O)c3ccccc3C(=O)c3ccc(F)cc3)cc2)S1 [Compound A-40] | 7.44 | 6.21 |
| CC(C)c1cccc(Br)c1O[C@@H]1C[C@@H](CNC(=O)c2ccc(/C=C3\SC(=O)NC3=O)cc2)N(C(=O)c2ccccc2C(=O)c2ccc(F)cc2)C1 [Compound A-100] |  | 6.49 |
